23 compounds from ChEMBL document CHEMBL1155978, “Identification of positron emission tomography ligands for NPY Y5 receptors in the brain” (Bioorg Med Chem Lett, 2009) can be followed below.

Data set [1] addresses T1, Neuropeptide Y receptor type 5 (Homo sapiens, UniProt Q15761).
T1 sequence (Q15761 whole entry): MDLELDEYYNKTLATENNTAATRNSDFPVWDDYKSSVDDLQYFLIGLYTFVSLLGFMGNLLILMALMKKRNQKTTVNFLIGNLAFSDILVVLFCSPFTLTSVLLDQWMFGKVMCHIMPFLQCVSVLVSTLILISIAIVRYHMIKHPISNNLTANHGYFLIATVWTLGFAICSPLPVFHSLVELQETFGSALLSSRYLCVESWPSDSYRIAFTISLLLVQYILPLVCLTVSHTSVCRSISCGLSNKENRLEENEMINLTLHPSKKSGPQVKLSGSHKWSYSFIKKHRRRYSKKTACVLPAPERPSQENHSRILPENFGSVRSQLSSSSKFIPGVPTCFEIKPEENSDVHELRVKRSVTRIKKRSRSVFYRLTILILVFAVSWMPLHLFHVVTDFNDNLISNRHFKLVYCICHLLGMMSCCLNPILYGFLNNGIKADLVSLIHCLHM
Kind of data set: Displacement of [125I]PYY from human recombinant NPY Y5 receptor expressed in mouse LMtk cells. Type of data set: cell-based. (In general: Displacement assays read how much labelled ligand stays bound in the presence of the test substance.)

A short description of data set [2]: Lipophilicity, Log D at pH 7.4. The following applies: buffer.
The subject of another data set is Rattus norvegicus. Kind of data set: Plasma concentration in rat at 3 mg/kg, iv. Note: time not given here. The class given is ADME, organism-based. Also on record: dose 3 mg/kg, route intravenous. The note with it: in vivo.
The subject of a further data set is Brain. Kind of data set: Drug level in rat brain at 3 mg/kg, iv. For Drug uptake: time not given here. Type of data set: ADME, organism-based. Set-up: dose 3 mg/kg, route intravenous. The note with it: in vivo.
The test system of another data set is Cerebrospinal fluid. Kind of data set: Drug level in rat cerebrospinal fluid at 3 mg/kg, iv. Note: time not given here. Type of data set: ADME, organism-based. Set-up: dose 3 mg/kg, route intravenous. The following applies: in vivo, read-out: Drug uptake.
The nature of data set [3]: Ratio of drug level in rat brain to plasma at 3 mg/kg, iv. Type of data set: ADME, organism-based. Set-up: dose 3 mg/kg, route intravenous.
Data set [4] can be described thus: Ratio of drug level in cerebrospinal fluid to brain of rat at 3 mg/kg, iv. The class given is ADME, organism-based, CSF/Brain. Set-up: dose 3 mg/kg, route intravenous. The note with it: in vivo.
Data set [5] concerns LLC-PK1. Kind of data set: Efflux ratio of permeability from […] side in human MDR1 gene transfected pig LLC-PK1 cells. Type of data set: ADME, cell-based, Sus scrofa.
In data set [6] the test system is LLC-PK1. Kind of data set: Efflux ratio of permeability from […] side in mouse mdr1a gene transfected pig LLC-PK1 cells. The class given is ADME, cell-based, Sus scrofa.
Data set [7] concerns the target T2, Neuropeptide Y receptor type 1 (Homo sapiens, UniProt P25929).
T2 sequence (P25929 whole entry): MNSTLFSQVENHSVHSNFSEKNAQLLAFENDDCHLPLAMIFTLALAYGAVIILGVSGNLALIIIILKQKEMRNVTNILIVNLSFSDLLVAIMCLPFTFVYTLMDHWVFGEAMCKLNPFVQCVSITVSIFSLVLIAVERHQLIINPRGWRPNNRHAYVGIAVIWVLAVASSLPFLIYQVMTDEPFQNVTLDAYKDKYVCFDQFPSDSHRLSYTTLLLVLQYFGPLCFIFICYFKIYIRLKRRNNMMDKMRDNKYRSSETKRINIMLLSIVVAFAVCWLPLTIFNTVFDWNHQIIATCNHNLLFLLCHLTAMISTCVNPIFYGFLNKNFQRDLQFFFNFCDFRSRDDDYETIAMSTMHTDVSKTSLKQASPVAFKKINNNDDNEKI
Kind of data set: Inhibition of human NPY Y1 receptor.

Data set [8] deals with T3, Neuropeptide Y receptor type 2 (Homo sapiens, UniProt P49146).
T3 sequence (P49146 whole entry): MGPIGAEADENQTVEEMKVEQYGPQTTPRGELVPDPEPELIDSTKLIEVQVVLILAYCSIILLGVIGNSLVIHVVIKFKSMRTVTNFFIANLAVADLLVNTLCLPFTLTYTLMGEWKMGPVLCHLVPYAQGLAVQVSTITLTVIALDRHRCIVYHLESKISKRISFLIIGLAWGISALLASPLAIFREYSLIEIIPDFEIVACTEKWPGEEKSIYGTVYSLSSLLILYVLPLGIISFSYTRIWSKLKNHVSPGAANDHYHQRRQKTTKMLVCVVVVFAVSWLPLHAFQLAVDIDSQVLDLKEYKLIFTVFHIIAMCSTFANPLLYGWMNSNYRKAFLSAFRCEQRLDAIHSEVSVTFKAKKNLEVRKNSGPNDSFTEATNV
Kind of data set: Inhibition of human NPY Y2 receptor.

Data set [9] deals with Neuropeptide Y receptor type 4 (Homo sapiens, UniProt P50391). Kind of data set: Inhibition of human NPY Y4 receptor.

Where only a bound is given, the exact number is not on record here.

Chain of Neuropeptide Y receptor type 4 (P50391 whole entry): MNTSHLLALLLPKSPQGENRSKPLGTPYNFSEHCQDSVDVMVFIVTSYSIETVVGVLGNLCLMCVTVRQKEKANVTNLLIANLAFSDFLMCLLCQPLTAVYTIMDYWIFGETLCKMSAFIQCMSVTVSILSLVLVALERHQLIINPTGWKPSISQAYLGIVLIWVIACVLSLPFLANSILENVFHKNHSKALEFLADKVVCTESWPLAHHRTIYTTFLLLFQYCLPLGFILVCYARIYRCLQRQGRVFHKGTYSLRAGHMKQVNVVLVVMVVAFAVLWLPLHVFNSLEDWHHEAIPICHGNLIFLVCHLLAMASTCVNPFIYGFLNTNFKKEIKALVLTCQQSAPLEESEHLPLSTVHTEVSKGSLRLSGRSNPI

For orientation: IC50 means the point on the concentration scale where inhibition reaches its midpoint. As to `O=C1O[C@]2(CC[C@H](C(=O)Nc3ncc(-c4ccccc4OCF)cn3)CC2)c2ccncc21`, the 50% inhibitory concentration (IC50) in data set [1] was 2.2 nM.
`O=C1O[C@]2(CC[C@H](C(=O)Nc3ncc(-c4cccc(OCF)c4)cn3)CC2)c2cccnc21`: the IC50 in data set [1] came out at 3.1 nM.
Regarding `O=C1O[C@]2(CC[C@H](C(=O)Nc3ncc(-c4ccc(F)cc4)cn3)CC2)c2cnccc21`, the IC50 in data set [1] amounted to 2.7 nM.
The logD is the decadic logarithm of the distribution of all forms, ionised or not, between an organic phase and buffer at a given pH. Regarding `O=C1O[C@]2(CC[C@H](C(=O)Nc3ncc(-c4ccccc4OCF)cn3)CC2)c2cnccc21`, the IC50 in data set [1] worked out at 2.6 nM. This compound also displayed a logD in data set [2] of 2.71.
Consider `O=C1O[C@]2(CC[C@H](C(=O)Nc3ncc(-c4ccccc4F)cn3)CC2)c2cccnc21`, for which the IC50 in data set [1] stood at 3 nM.
Broadly, the Kp is the ratio of the level in a tissue or fluid to that in plasma or blood. Consider `O=C1O[C@]2(CC[C@H](C(=O)Nc3ncc(-c4cccc(OCF)c4)cn3)CC2)c2ccncc21`, for which the IC50 in data set [1] turned out to be 1.8 nM. In data set [2], this compound had a logD of 2.71. In addition, the concentration was 1500 nM in the data set with Rattus norvegicus, 150 nM with Brain (read-out: Drug uptake) and 64 nM in the data set on Cerebrospinal fluid. The Kp in data set [3] turned out to be 0.11. The figures for the Ratio (in [4]; with LLC-PK1 [5]; with LLC-PK1 [6]) were 0.42, 1.52 and 9.51, respectively.
Take `O=C1O[C@]2(CC[C@H](C(=O)Nc3ncc(-c4cccc(OCF)c4)cn3)CC2)c2cnccc21`: the IC50 in data set [1] was 1.9 nM. The compound further returned a logD in [2] of 2.75. Further, the values for the concentration in the data set on Rattus norvegicus, in the data set on Brain (read-out: Drug uptake) and with Cerebrospinal fluid were 2040 nM, 740 nM and 95 nM, respectively. Further, the Kp in data set [3] worked out at 0.37. Further, the Ratio in data set [4] amounted to 0.13; in the data set with LLC-PK1 [5] it was 1.37; in the data set on LLC-PK1 [6], 8.23.
`O=C1O[C@]2(CC[C@H](C(=O)Nc3ncc(-c4ccccc4F)cn3)CC2)c2ccncc21`: the IC50 in data set [1] was 1.5 nM; in data set [7], greater than 10000 nM; in [8], greater than 10000 nM; in data set [9], greater than 10000 nM. The compound further showed a logD in data set [2] of 2.79. Also, the results for the concentration in the data set on Rattus norvegicus, in the data set on Brain (read-out: Cp) and in the data set with Cerebrospinal fluid were 3100 nM, 1550 nM and 288 nM, respectively. Further, the Kp in data set [3] worked out at 0.5. Further, the Ratio is on record as 0.19 in data set [4], 1.11 in the data set with LLC-PK1 [5] and 4.43 in the data set with LLC-PK1 [6].
As for `O=C1O[C@]2(CC[C@H](C(=O)Nc3ncc(-c4ccccc4)cn3)CC2)c2cnccc21`, the IC50 in data set [1] came to 1.8 nM. This compound also registered a logD in data set [2] of 2.65.
The like results for `O=C1O[C@]2(CC[C@H](C(=O)Nc3ncc(-c4ccccc4)cn3)CC2)c2cccnc21` were, in that order, 2.1 nM and 2.32.
`O=C1O[C@]2(CC[C@H](C(=O)Nc3ncc(-c4ccc(F)cc4)cn3)CC2)c2cccnc21`: in [1], the IC50 is 7.5 nM.
Still for that read-out and setting: the value for `O=C1O[C@]2(CC[C@H](C(=O)Nc3ncc(-c4ccccc4)cn3)CC2)c2ccncc21` was 2 nM.
Take `O=C1O[C@]2(CC[C@H](C(=O)Nc3ncc(-c4ccccc4)cn3)CC2)c2ccccc21`: the IC50 in data set [1] is 0.64 nM. The logD in data set [2] turned out to be 3.73.
For `O=C1O[C@]2(CC[C@H](C(=O)Nc3ncc(-c4cccc(F)c4)cn3)CC2)c2cnccc21`, the IC50 in [1] worked out at 1.8 nM.
`O=C1O[C@]2(CC[C@H](C(=O)Nc3ncc(-c4ccc(F)cc4)cn3)CC2)c2ccncc21`: in data set [1], the half-inhibitory concentration (IC50) is 2.2 nM.
Turning to `O=C1O[C@]2(CC[C@H](C(=O)Nc3ncc(-c4cccc(F)c4)cn3)CC2)c2ccncc21`, the IC50 in [1] is 1.5 nM. For the same compound, in [2], the logD was 2.78. For the same compound, the figures for the concentration in the data set on Rattus norvegicus, in the data set on Brain (read-out: Drug uptake) and in the data set on Cerebrospinal fluid were 3450 nM, 1420 nM and 308 nM, respectively. Also, the concentration ratio (Kp) in data set [3] was 0.41. The Ratio in data set [4] stood at 0.22; with LLC-PK1 [5], 1.41; in the data set on LLC-PK1 [6], 7.78.
`O=C1O[C@]2(CC[C@H](C(=O)Nc3ncc(-c4cccc(CF)c4)cn3)CC2)c2cccnc21`: the half-inhibitory concentration (IC50) in data set [1] amounted to 2.3 nM.
Turning to `O=C1O[C@]2(CC[C@H](C(=O)Nc3ncc(-c4ccccc4CF)cn3)CC2)c2cnccc21`, in data set [1], the IC50 was found to be 2 nM. This compound also returned a pH-dependent lipophilicity (logD) in data set [2] of 2.54.
The like results for `O=C1O[C@]2(CC[C@H](C(=O)Nc3ncc(-c4cccc(F)c4)cn3)CC2)c2cccnc21` were, in that order, 2.2 nM and 2.48.
`O=C1O[C@]2(CC[C@H](C(=O)Nc3ncc(-c4cccc(CF)c4)cn3)CC2)c2cnccc21`: the IC50 in [1] is 1.8 nM. The compound further came in with a pH-dependent lipophilicity (logD) in data set [2] of 2.65. Also, the concentration came out at 1220 nM with Rattus norvegicus, 370 nM with Brain (read-out: Drug uptake) and 79 nM with Cerebrospinal fluid. In [3], the Kp worked out at 0.3. In addition, the Ratio was found to be 0.22 in data set [4], 1.69 with LLC-PK1 [5] and 7.9 in the data set with LLC-PK1 [6].
Turning to `O=C1O[C@]2(CC[C@H](C(=O)Nc3ncc(-c4ccccc4F)cn3)CC2)c2cnccc21`, the IC50 in data set [1] turned out to be 1.8 nM. In [2], this compound yielded a logD of 2.79.
For the compound `O=C1O[C@]2(CC[C@H](C(=O)Nc3ncc(-c4ccccc4)cn3)CC2)c2ncccc21`, the IC50 in [1] was 2.9 nM. In data set [2], the logD turned out to be 2.71.
Regarding `O=C1O[C@]2(CC[C@H](C(=O)Nc3ncc(-c4ccccc4OCF)cn3)CC2)c2cccnc21`, the IC50 in [1] stood at 4.5 nM.
